Results taken from patent publication US20210196737A1, “USE OF TREZASTILBENOSIDE IN MANUFACTURE OF PRODUCT FOR TREATING AND/OR PREVENTING NON-ALCOHOLIC FATTY LIVER DISEASE” (KPC PHARMACEUTICALS, INC., priority 2019, published 2021).

Assays:
[1] = safety research mentioned in background; cited from earlier work
[2] = system: non-alcoholic fatty liver disease (NAFLD) model mice; test: Levels of serum TC, TG, HDL, LDL, AST and ALT in NAFLD model mice; type: in vivo, C57BL/6 mice; settings: x ± s, n=10
Source text: (§1) After 1 week of adaptive feeding, 44 C57 mice were divided into a control group (12 mice) and a model group (32 mice) according to the random number method. The normal control group was given ordinary diet, and the model group was given high-sugar and high-fat diet. After feeding for 8 weeks, randomly select 2 animals in each of the control group and the model group. After pathological examination confirmed that the modeling was successful, the model animals were divided into groups.
(§2) The model animals were divided according to random number method into 3 groups of 10 mice each, namely model control group (equal volume of sodium chloride injection solution), Trezastilbenoside high dose group (20 mg/kg) and Trezastilbenoside low dose group (10 mg/kg). The mice in each administration group were administered intragastrically with the corresponding drug, once a day continuously for 4 weeks, while being fed with the high-sugar and high-fat feed continuously. The mice in the normal control group (equal volume of sodium chloride injection solution) were feed with the ordinary feed.
About 1 mL of blood, taken via mouse eyeballs, was placed into a 1.5 mL centrifuge tube, and then centrifuged at 3000 r/min for 10 min to obtain the supernatant. The levels of TC, TG, HDL, LDL, AST and ALT in the serum were measured with a microplate reader strictly under the operating instructions of the assay kit.

[3] = system: non-alcoholic fatty liver disease (NAFLD) model mice; test: Gross observation and HE staining of liver of NAFLD model mice; type: in vivo, C57BL/6 mice
Source text: as §1, §2
The fresh liver tissue was immersed and fixed in 4% formaldehyde solution overnight for 24 h, dehydrated through 75%-95%-100% ethanol gradient, embedded in paraffin, sectioned into 4 μm, and conventionally stained with hematoxylin-eosin, to observe the pathological changes of the liver tissue under an optical microscope (HE, 200×).

[4] = system: non-alcoholic fatty liver disease (NAFLD) model mice; test: TC and TG content in liver tissue of NAFLD model mice; type: in vivo, C57BL/6 mice
Source text: as §1, §2
About 100 mg of liver tissue weighed, was put into 900 μL absolute ethanol to make a 10% tissue homogenate under an ice bath. Then the supernatant was separated out through a centrifugation separation at 3000 r/min for 15 min, and collected into a 1.5 mL centrifuge tube for the measurement of TC and TG content in the liver tissue.

[5] = system: non-alcoholic fatty liver disease (NAFLD) model mice; test: Body weight, wet liver weight and liver index in high-sugar high-fat diet NAFLD model mice; type: in vivo, C57BL/6 mice; settings: for Weight: high-sugar high-fat feed; for Weight / Wet liver weight: mean ± s, n=10
Source text: as §1, §2
After the last administration, the mice were fasted but had access to water for 12 h, and then sacrificed after blood was taken. The body mass and liver mass of each mouse were weighed to calculate the liver index by the following formula.
liver index=(liver wet mass/body mass)×100% (wet liver mass/body mass).

[6] = safety research mentioned in background; cited from earlier work; remark: listed apart in the source
[7] = high dose 20 mg/kg intragastric 4 weeks
[8] = low dose 10 mg/kg intragastric 4 weeks
[9] = HE, 200x, Trezastilbenoside group
[10] = high dose 20 mg/kg intragastric once a day for 4 weeks
[11] = low dose 10 mg/kg intragastric once a day for 4 weeks

## OC[C@H]1O[C@@H](Oc2cc(/C=C/c3cc(O)cc(O)c3)ccc2O)[C@H](O)[C@@H](O)[C@@H]1O [Trezastilbenoside]
[1]
  Chromosome aberrations or mutagenesis in the genetic test: no chromosome aberrations or mutagenesis were found
[2]; [7]
  ALT (U/L): 78.30 ± 11.53 U/L
  AST (U/L): 118.92 ± 10.75 U/L
  HDL: 0.45 ± 0.16 mmol/L
  LDL: 0.41 ± 0.30 mmol/L
  TC: 3.43 ± 0.17 mmol/L
  TG: 0.99 ± 0.11 mmol/L
[2]; [8]
  ALT (U/L): 122.45 ± 27.37 U/L
  AST (U/L): 147.73 ± 52.98 U/L
  HDL: 0.27 ± 0.67 mmol/L
  LDL: 0.47 ± 0.13 mmol/L
  TC: 5.53 ± 0.52 mmol/L
  TG: 2.67 ± 0.19 mmol/L
[3]; [9]
  HE observation of mouse liver: fat droplets and pathological morphology, compared with the model group: smaller and fewer, the pathological morphology of liver tissue was significantly improved
  HE observation of mouse liver: infiltration of inflammatory cells: the infiltration of inflammatory cells was not obvious
[3]; low and high dose groups (10 and 20 mg/kg)
  Gross observation of mouse liver: colour, texture and shape: between the normal control group and the model group, and the texture and shape tended to be normal
[4]; [7]
  TC: 4.23 ± 0.87 mg/g
  TG: 1.96 ± 0.99 mg/g
[4]; [8]
  TC: 6.53 ± 0.59 mg/g
  TG: 2.12 ± 0.58 mg/g
[5]; Trezastilbenoside administration group, 4 weeks intragastric
  Obesity induced by high sugar and high fat, compared with the model group: has a tendency to reduce the obesity induced by high sugar and high fat in mice
[5]; [10]
  Weight: 33.8 ± 0.74 g
  Wet liver weight: 1.72 ± 2.7 g
[5]; high dose 20 mg/kg intragastric once a day for 4 weeks, liver wet mass/body mass x 100%
  Liver index (%): 0.51 ± 0.05 %
[5]; [11]
  Weight: 35.0 ± 0.62 g
  Wet liver weight: 1.84 ± 3.0 g
[6]
  Toxic side reactions and death in acute toxicity tests: no toxic side reactions and death occurred
